The results in this text go back to patent publication US20160024421A1, “IONIC LIQUIDS CONTAINING QUATERNARY PHOSPHONIUM CATIONS AND CARBOXYLATE ANIONS, AND THEIR USE AS LUBRICANT ADDITIVES” (UT-Battelle, LLC, priority 2014, published 2016).

Common to all, as to type: physicochemical
Data set [1] is described as follows: Kinematic viscosity (Petrolab Minivis II viscometer). Set-up: unit not given here. The procedure:
(§1) Thermogravimetric analysis (TGA) was performed on a thermogravimetric analyzer (TGA-2950, TA instruments) at a 10° C./min heating rate in air. […] The kinematic viscosities were measured on a […] viscometer.

A short description of a further data set: Density.
The nature of data set [2]: Thermogravimetric analysis (decomposition temperature). Here is the method:
as §1

Read-outs that look alike come from different tables or passages of the source.

As for `CCCCCCCCCC(=O)[O-].CCCCCCCCCCCCCC[P+](CCCCCC)(CCCCCC)CCCCCC` [[P66614][C9H19COO]s], the “Kinematic Viscosity @ 40° C.” value in data set [1] (40° C.) is on record as “solid”. Further, the “Density @ 20° C.” value in the data set “Density” (20° C.) is reported as 0.89 g/mL.
In data set [2] (TGA, 10° C./min heating rate in air), `CCCCCCCCCCCCCCCCCC(=O)[O-].CCCCCCCCCCCCCC[P+](CCCCCC)(CCCCCC)CCCCCC` [[P66614][C17H35COO]s] gave a Decomp. temperature of 308 °C. Besides, in “Density” (20° C.), the “Density @ 20° C.” value is 0.88 g/mL.
Turning to “trihexyltetradecylphosphonium 2-ethylhexanoate [[P66614][C7H15COO]b]”, the “Kinematic Viscosity @ 40° C.” value in data set [1] stood at 184.8. The Decomp. temperature in data set [2] was 308 °C. The “Density @ 20° C.” value in the data set “Density” came out at 0.88 g/mL.
On to “trihexyltetradecylphosphonium octanoate [[P66614][C7H15COO]s]”, for which the “Kinematic Viscosity @ 40° C.” value in data set [1] is listed as 122.2. The same compound gave a Decomp. temperature in data set [2] of 261 °C.
